Reference: patent US20140350273A1, “PEDIATRIC USES OF CABAZITAXEL” (AVENTIS PHARMA S.A., priority 2012, published 2014)
Read-outs that look alike come from different tables or passages of the source.

System: human Ewing's sarcoma SK-ES-1
Type: in vivo
Parameters: Tumor volume changes from baseline: Median (nMad): unit not given here
Protocol: This efficacy may be quantified, for example, as changes in tumor volume for each treated (T) and control (C) group, which are calculated for each animal and each day by subtracting the tumor volume on the day of first treatment (staging day) from the tumor volume on the specified observation day. This allows calculating the tumor growth inhibition: ΔT/ΔC=(median delta T/median delta C)×100. Individual tumor volume changes from baseline are thereafter analyzed by a non-parametric two-way ANOVA-TYPE (with factors: group and repeated days) followed by a post-hoc contrasts analysis, with Bonferroni-Holm adjustment for multiplicity, comparing all treated groups to the control group. […] A probability less than 5% (p<0.05) was considered as significant.
Based on the National Cancer Institute (NCl) standards, a ΔT/ΔC≦40% is the minimal level required to declare activity.
The tumor doubling time (in days; Td) was estimated from the plot of the log linear growth of the control group tumors in exponential growth (100 to 1000 mm^3 range) [T. H. Corbett et al., Cancer, 40: 2660-2680 (1977); F. M. Schabel et al., Cancer Drug Development, Part B, Methods in Cancer Research, 17: 3-51, New York, Academic Press Inc. (1979)].
This efficacy may also be quantified by the number of tumor regressions observed after therapy. Individual mice reporting a tumor volume ≦50% of the Day 0 measurement for two consecutive measurements over a seven day period were considered partial responders (PR). Individual mice lacking palpable tumors (<4×4 mm^2 for two consecutive measurements over a seven day period) were classified as complete responders (CR); a CR that persisted until study completion was considered a tumor-free survivor (TFS).
The efficacy of cabazitaxel in comparison with docetaxel on pediatric solid tumors was determined experimentally in the following manner:
The animals subjected to the experiment are subcutaneously grafted unilaterally with approximately 30 mg of a tumor fragment on day 0. The animals are implanted with a human tumor xenografted in immunocompromized mice. Several days post tumor implantation, mice are randomized according to their body weight to the different groups of treatments and controls. The animals are observed every day. The different animal groups are weighed daily during treatment until the maximum weight loss is reached and subsequent full weight recovery has occurred. The groups are then weighed once or twice a week until the end of the trial.
The tumors are measured 1 to 5 times a week, depending on the tumor doubling time, until the tumor reaches approximately 1,000 mm^3, or until the animal dies (if this occurs before the tumor reaches 1,000 mm^3). The animals are necropsied immediately after euthanasia or death.
The selected tumor model was a human Ewing's sarcoma SK-ES-1, xenografted in SCID mice [Fogh J. New York: Plenum Press, 1975].
Cabazitaxel and docetaxel were weighed for each treatment and dissolved in ethanol. Treatment solutions were prepared first by mixing 1 volume of ethanolic stock solution and 1 volume of polysorbate 80, then by adding 18 volumes of glucose 5% in water.
The Td in days was estimated from the plot of the log linear growth of the control group tumors in exponential growth (100 to 1,000 mm^3 range) and the number of tumor regressions observed after therapy.
The following end points have been used: • Toxicity was declared at dosages inducing ≧20% body weight loss or ≧10% drug death; • Relative tumor growth inhibition was determined on day 22 post tumor implantation when the median tumor size in the control group was 456 mm^3; • Antitumor efficacy was determined by calculating the ΔT/ΔC value in percent, according to the above-mentioned formula; • Tumor regressions (as explained above); • Statistical analysis performed (as explained above).

[1] = 3.5 mg/kg per injection (total 7.0) IV days 15; 19
[2] = 3.5 mg/kg per injection (total 7.0) IV days 15; 19; listed as DOCETAXEL
[3] = 3.5 mg/kg per injection (total 7.0) IV days 15; 19; listed as docetaxel
[4] = 5.6 mg/kg per injection (total 11.2) IV days 15; 19
[5] = 5.6 mg/kg per injection (total 11.2) IV days 15; 19; listed as DOCETAXEL
[6] = 9.0 mg/kg per injection (total 18) IV days 15; 19
[7] = 9.0 mg/kg per injection (total 18) IV days 15; 19; listed as DOCETAXEL
[8] = 14.5 mg/kg per injection (total 29) IV days 15; 19
[9] = 14.5 mg/kg per injection (total 29) IV days 15; 19; listed as DOCETAXEL
[10] = 14.5 mg/kg per injection (total 29) IV days 15; 19; listed as docetaxel

CC(=O)O[C@@]12CO[C@@H]1C[C@H](O)[C@@]1(C)C(=O)[C@H](O)C3=C(C)[C@@H](OC(=O)[C@H](O)[C@@H](NC(=O)OC(C)(C)C)c4ccccc4)C[C@@](O)([C@@H](OC(=O)c4ccccc4)[C@H]21)C3(C)C [Docetaxel, docetaxel]
Average body weight change in % per mouse at nadir [1]: −2.1% | Drug death [1]: 0/7 | Regressions Complete [1]: 0/7 | Regressions Partial [1]: 0/7 | Tumor free survivors at day 120 [1]: 0/7 | day of nadir [1]: 16 days | Biological interpretation [2]: Inactive | ΔT/ΔC in % (day 22) [2]: 72% | Biological interpretation [3]: inactive | ΔT/ΔC in % (day 22) [3]: > 40% | Tumor volume changes from baseline: Median (nMad) (3.5 mg/kg, day 19): 52 | Tumor volume changes from baseline: Median (nMad) (3.5 mg/kg, day 22): 136 | Tumor volume changes from baseline: Median (nMad) (3.5 mg/kg, day 25): 712 | Tumor volume changes from baseline: Median (nMad) (3.5 mg/kg, day 28): 900 | Tumor volume changes from baseline: Median (nMad) (3.5 mg/kg; day 19): 52 (89) | Tumor volume changes from baseline: Median (nMad) (3.5 mg/kg; day 22): 136 | Tumor volume changes from baseline: Median (nMad) (3.5 mg/kg; day 25): 712 (29.7) | Tumor volume changes from baseline: Median (nMad) (3.5 mg/kg; day 28): 900 | Average body weight change in % per mouse at nadir [4]: −5.4% | Drug death [4]: 0/7 | Regressions Complete [4]: 0/7 | Regressions Partial [4]: 1/7 | Tumor free survivors at day 120 [4]: 0/7 | day of nadir [4]: 16 days | Biological interpretation [5]: Highly Active | ΔT/ΔC in % (day 22) [5]: <0% | Biological interpretation (5.6 mg/kg per injection (total 11.2) IV days 15; 19; listed as docetaxel): highly active | Tumor volume changes from baseline: Median (nMad) (5.6 mg/kg, day 19): 0 | Tumor volume changes from baseline: Median (nMad) (5.6 mg/kg, day 22): −36 | Tumor volume changes from baseline: Median (nMad) (5.6 mg/kg, day 25): 168 | Tumor volume changes from baseline: Median (nMad) (5.6 mg/kg, day 28): 342 | Tumor volume changes from baseline: Median (nMad) (5.6 mg/kg; day 19): 0 (106.7) | Tumor volume changes from baseline: Median (nMad) (5.6 mg/kg; day 22): −36 (60.8) | Tumor volume changes from baseline: Median (nMad) (5.6 mg/kg; day 25): 168 (80.1) | Tumor volume changes from baseline: Median (nMad) (5.6 mg/kg; day 28): 342 (89) | Tumor volume changes from baseline: Median (nMad) (5.6 mg/kg; day 32): 480 | Tumor volume changes from baseline: Median (nMad) (5.6 mg/kg; day 35): 2005 | Average body weight change in % per mouse at nadir [6]: −6.6% | Drug death [6]: 0/7 | Regressions Complete [6]: 0/7 | Regressions Partial [6]: 6/7 | Tumor free survivors at day 120 [6]: 0/7 | day of nadir [6]: 23 days | Biological interpretation [7]: Highly Active | ΔT/ΔC in % (day 22) [7]: <0% | Biological interpretation (9.0 mg/kg per injection (total 18) IV days 15; 19; listed as docetaxel): highly active | Tumor volume changes from baseline: Median (nMad) (9 mg/kg, day 19): 0 | Tumor volume changes from baseline: Median (nMad) (9 mg/kg, day 22): −101 | Tumor volume changes from baseline: Median (nMad) (9 mg/kg, day 25): −126 | Tumor volume changes from baseline: Median (nMad) (9 mg/kg, day 28): −126 | Tumor volume changes from baseline: Median (nMad) (9 mg/kg; day 19): 0 (37.1) | Tumor volume changes from baseline: Median (nMad) (9 mg/kg; day 22): −101 | Tumor volume changes from baseline: Median (nMad) (9 mg/kg; day 25): −126 | Tumor volume changes from baseline: Median (nMad) (9 mg/kg; day 28): −126 (46) | Tumor volume changes from baseline: Median (nMad) (9 mg/kg; day 32): −49 | Tumor volume changes from baseline: Median (nMad) (9 mg/kg; day 35): 201 | Average body weight change in % per mouse at nadir [8]: −10.5% | Drug death [8]: 0/7 | Regressions Complete [8]: 3/7 | Regressions Partial [8]: 7/7 | day of nadir [8]: 27 days | Biological interpretation [9]: Highly Active | Tumor free survivors at day 120 [9]: 0/7 | ΔT/ΔC in % (day 22) [9]: <0% | Biological interpretation [10]: highly active | Tumor free survivors at day 120 [10]: no TFS | Tumor volume changes from baseline: Median (nMad) (14.5 mg/kg, day 19): −18 | Tumor volume changes from baseline: Median (nMad) (14.5 mg/kg, day 22): −156 | Tumor volume changes from baseline: Median (nMad) (14.5 mg/kg, day 25): −173 | Tumor volume changes from baseline: Median (nMad) (14.5 mg/kg, day 28): −164 | Tumor volume changes from baseline: Median (nMad) (14.5 mg/kg; day 19): −18 (77.1) | Tumor volume changes from baseline: Median (nMad) (14.5 mg/kg; day 22): −156 | Tumor volume changes from baseline: Median (nMad) (14.5 mg/kg; day 25): −173 | Tumor volume changes from baseline: Median (nMad) (14.5 mg/kg; day 28): −164 | Tumor volume changes from baseline: Median (nMad) (14.5 mg/kg; day 32): −162 | Tumor volume changes from baseline: Median (nMad) (14.5 mg/kg; day 35): −162 | Tumor volume changes from baseline: Median (nMad) (14.5 mg/kg; day 39): 290 | Tumor volume changes from baseline: Median (nMad) (14.5 mg/kg; day 41): 274 | Tumor volume changes from baseline: Median (nMad) (14.5 mg/kg; day 43): 427.5 | Tumor volume changes from baseline: Median (nMad) (14.5 mg/kg; day 45): 574
